This note sets out measurements from US9650395B2, “Antibacterial compounds and methods for use” (PTC Therapeutics, Inc., priority 2011, dated 2017).

Structures can show the parent of a compound that is named as a salt.

The test system of assay [1] is resistant K. pneumoniae MXX1232 (MDR clinical isolate). The assay is described as follows: Antibacterial activity, MIC, resistant K. pneumoniae MXX1232. As to conditions: Klebsiella pneumoniae; resistant K. pneumoniae MMX1232, MDR clinical isolate; read-out: MIC MMX1232. Type of assay: cell-based, Klebsiella pneumoniae.
Assay [2] deals with Gram-positive Staphylococcus aureus (S. aureus) 29213. The assay is described as follows: Antibacterial activity, microbroth dilution MIC, S. aureus 29213. Type of assay: cell-based. The conditions noted are these: Staphylococcus aureus; S. aureus 29213, microbroth dilution; read-out: MIC, 29213.
Assay [3] deals with quinolone resistant E. coli LZ3111. Description: Antibacterial activity, MIC, quinolone resistant E. coli LZ3111. As to conditions: Escherichia coli, read-out: MIC, LZ3111. Type of assay: cell-based, Escherichia coli. The source says:
(§1) The antibacterial activity from a microbroth dilution method may be presented as the minimum inhibitory concentration (MIC in […]). The MIC value is the lowest concentration of a drug which prevents macroscopically visible bacterial growth under test conditions.
Mutations in these regions are known to confer a high level resistance to the quinolone class of antibiotics.

Assay [4] relates to E. coli ELZ4251 (MDR clinical isolate). Description: Antibacterial activity, MIC, MDR E. coli ELZ4251. As to conditions: E. coli ELZ4251, MDR clinical isolate; hydrochloride. Type of assay: cell-based, Escherichia coli.
Assay [5] deals with Moraxella catarrhalis (M. catarrhalis) 25238. Description: Antibacterial activity, MIC, M. catarrhalis 25238. Type of assay: cell-based. The conditions noted are these: M. catarrhalis 25238; hydrochloride.
The subject of assay [6] is super sensitive Gram-negative Escherichia coli (E. coli) BAS849. Description: Antibacterial activity, microbroth dilution MIC, E. coli BAS849. The conditions noted are these: Escherichia coli; E. coli BAS849, microbroth dilution; read-out: MIC, BAS849. Type of assay: cell-based.
The subject of assay [7] is Klebsiella pneumoniae (K. pneumoniae) 35657. The assay is described as follows: Antibacterial activity, MIC, K. pneumoniae 35657. The conditions noted are these: Klebsiella pneumoniae. Type of assay: cell-based.
Assay [8] concerns resistant A. baumannii MXX2240 (MDR clinical isolate). Description: Antibacterial activity, MIC, resistant A. baumannii MXX2240. Type of assay: cell-based, Acinetobacter baumannii. As to conditions: resistant A. baumannii MMX2240, MDR clinical isolate; hydrochloride.
Assay [9] concerns Acinetobacter baumannii (A. baumannii) BAA747. Description: Antibacterial activity, MIC, A. baumannii BAA747. Type of assay: cell-based. As to conditions: Acinetobacter baumannii; A. baumannii BAA747; read-out: MIC BAA747.
Assay [10] relates to control Gram-negative E. coli 25922 strain. The assay is described as follows: Antibacterial activity, microbroth dilution MIC, E. coli 25922. Type of assay: cell-based, Escherichia coli. The conditions noted are these: Escherichia coli; E. coli 25922, microbroth dilution; read-out: MIC, 25922.
For assay [11], the system named is Pseudomonas aeruginosa (P. aeruginosa) 27853. Description: Antibacterial activity, MIC, P. aeruginosa 27853. As to conditions: P. aeruginosa 27853; hydrochloride. Type of assay: cell-based.
Text: as §1
Antibacterial activity of test compounds against the Gram-negative bacterium Pseudomonas aeruginosa (P. aeruginosa) 27853 is shown in Table 5.

The next assay concerns various organisms. The assay is described as follows: Microdilution checkerboard method, combination with ciprofloxacin (MIC and FIC). Type of assay: cell-based. As to conditions: single agent.
Where [12] appears, read: Acinetobacter baumannii, A. baumannii (MDR).
[13] abbreviates: Acinetobacter baumannii, BAA747, A. baumannii BAA747.
Where [14] appears, read: Escherichia coli, E. coli 25922.
Where [15] appears, read: Klebsiella pneumoniae, K. pneumoniae 35657.
Setting [16] is: Pseudomonas aeruginosa, P. aeruginosa 27853.
Setting [17] is: Staphylococcus aureus, S. aureus 29213.
Setting [18] is: Staphylococcus aureus, S. aureus (MDR).

Regarding `CCc1c(-c2ccc(N3C[C@@H]4[C@@H](N)[C@@H]4C3)cc2)[nH]c(=O)c(C(=O)O)c1O` [Cpd 269, 6-{4-[(1R,5S,6s)-6-amino-3-azabicyclo[3.1.0]hex-3-yl]phenyl}-5-ethyl-4-hydroxy-2-oxo-1,2-dihydropyridine-3-carboxylic acid hydrochloride], the MIC in [1] was 12.5 to 150 µg/mL; in [2] it was 3.5 to 12.5 µg/mL; in assay [3], 3.5 to 12.5 µg/mL; in assay [6], less than 1 µg/mL; in [7], less than 1 µg/mL; in assay [9] it was less than 1 µg/mL. Also, the MIC in assay [10] was less than 1 µg/mL; with various organisms (setting [12]) it was 12.5 µg/mL; in the assay on various organisms (setting [13]), 0.39 µg/mL; with various organisms (Escherichia coli, E. coli 3111) it was 3.1 µg/mL; in the assay on various organisms (setting [14]), 0.19 µg/mL; with various organisms (setting [15]) it was 0.39 µg/mL. The MIC with various organisms (setting [16]) was determined as 1.6 µg/mL; in the assay on various organisms (setting [17]), 3.12 µg/mL; with various organisms (setting [18]), 6.2 µg/mL. Also, in assay [4], the “MIC ELZ4251” value is “* (an MIC value between >12.5 μg/mL and ≦150 μg/mL is indicated by a single star (*))”. The “MIC 25238” value in assay [5] is listed as “**** (an MIC value of ≦1.0 μg/mL is indicated by four stars (****))”. The “MIC MMX2240” value in assay [8] is “** (an MIC value between >3.5 μg/mL and ≦12.5 μg/mL is indicated by two stars (**))”. In addition, in assay [11], the “MIC 27853” value was “*** (an MIC value between >1.0 μg/mL and ≦3.5 μg/mL is indicated by three stars (***))”.

For the compound `O=C(O)c1cn(C2CC2)c2cc(N3CCNCC3)c(F)cc2c1=O` [Cipro, ciprofloxacin, reference compound], the MIC is 125 µg/mL with various organisms (setting [12]); 0.098 µg/mL in the assay on various organisms (setting [13]); 125 µg/mL with various organisms (Escherichia coli, E. coli 3111); 0.013 µg/mL in the assay with various organisms (setting [14]); 0.01 µg/mL in the assay on various organisms (setting [15]); 0.2 µg/mL in the assay on various organisms (setting [16]). Further, the minimal inhibitory concentration (MIC) with various organisms (setting [17]) is 0.39 µg/mL; with various organisms (setting [18]), 31.2 µg/mL.
